Assay results published in US11535643B2, “Macrolides with modified desosamine sugars and uses thereof” (President and Fellows of Harvard College, priority 2015, dated 2022).
≈ marks a conversion by molar mass, not a printed value.

Columns and labels:
Format in all cases: cell-based
A. baumannii = assay: Broth dilution MIC determination (CLSI) against A. baumannii strains
Outline: (§1)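 Strains, including multidrug-resistant and macrolide-resistant ones, were exposed to macrolides in broth dilution per CLSI standards, and the lowest inhibiting concentration was recorded as MIC. Azithromycin and solithromycin were run alongside.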

S. pneumoniae = assay: Broth dilution MIC determination (CLSI) against S. pneumoniae strains
Outline: as §1

S. pyogenes = assay: Broth dilution MIC determination (CLSI) against S. pyogenes strains
Outline: as §1

E. coli = assay: Broth dilution MIC determination (CLSI) against E. coli strains
Outline: as §1

S. aureus = assay: Broth dilution MIC determination (CLSI) against S. aureus strains
Outline: as §1

E. faecalis = assay: Broth dilution MIC determination (CLSI) against E. faecalis strains
Outline: as §1

K. pneumoniae = assay: Broth dilution MIC determination (CLSI) against K. pneumoniae strains
Outline: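 Azithromycin and solithromycin served as controls; MICs were obtained by standard CLSI broth dilution on a strain panel including multidrug-resistant and macrolide-resistant isolates.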

P. aeruginosa = assay: Broth dilution MIC determination (CLSI) against P. aeruginosa strains
Outline: as §1

[1] = A. baumannii ATCC19606, strain MP-15 (Table N2)
[2] = A. baumannii clinical, strain MP576 (Table N2)
[3] = A. baumannii clinical, strain MP577 (Table N2)
[4] = S. pneumoniae ATCC49619, strain MP-21 (Table N2)
[5] = S. pneumoniae mefA, strain MP-626 UNT-038 (Table N2)
[6] = S. pneumoniae mefA, strain MP-627 UNT-039 (Table N2)
[7] = S. pyogenes ATCC19615, strain MP-19 (Table N2)
[8] = S. pyogenes mac resistant, strain MP-625 UNT-014 (Table N2)
[9] = E. coli ATCC25922, strain MP-4 (Table N2)
[10] = E. coli ATCC25922:tolC, strain MP-9 (Table N2)
[11] = E. coli clinical, strain MP541 (Table N2)
[12] = E. coli clinical-cErm, strain MP532 (Table N2)
[13] = S. aureus (MRSA) GISA USA600, strain MP-619 UNT-120 (Table N2)
[14] = S. aureus (MRSA) ST-228 cErm, strain MP-513 (Table N2)
[15] = S. aureus (MRSA) USA100, strain MP-618 UNT-096 (Table N2)
[16] = S. aureus (MRSA) USA300, strain MP-549 (Table N2)
[17] = S. aureus (MRSA) ermA phenotype, strain MP-620 UNT-146 (Table N2)
[18] = S. aureus ATCC29213, strain MP-12 (Table N2)
[19] = S. aureus ATCCBAA-977, strain MP-17 (Table N2)
[20] = E. faecalis ATCC29212, strain MP-24 (Table N2)
[21] = E. faecalis van resistant, strain UNT-039 (Table N2)
[22] = K pneumomae ATCC10031, strain MP-14 (Table N2)
[23] = K. pneumoniae clinical, strain MP546 (Table N2)
[24] = K. pneumoniae clinical, strain MP548 (Table N2)
[25] = P. aeruginosa ATCC27853, strain MP-3 (Table N2)
[26] = P. aeruginosa PAO1, strain MP-7 (Table N2)
[27] = P. aeruginosa PAO1:mex, strain MP-8 (Table N2)

## CCC1OC(=O)C(C)C(=O)C(C)C(OC2OC(C)CC(N3CCOCC3)C2O)C(C)(OC)CC(C)CNC(C)C2N(CCCCn3cc(-c4cccc(N)c4)nn3)C(=O)OC12C (stereo not drawn) [FSM-120367]
A. baumannii; ATCC19606, Strain No. MP-15
  MIC A. baumannii ATCC19606: >64 µg/mL
A. baumannii; Strain No. MP576
  MIC A. baumannii clinical: >64 µg/mL
A. baumannii; Strain No. MP577
  MIC A. baumannii clinical: >64 µg/mL
S. pneumoniae; ATCC49619, Strain No. MP-21
  MIC S. pneumoniae ATCC49619: 32 µg/mL (≈ 36.8 µM)
S. pneumoniae; Strain No. MP-626 UNT-038
  MIC S. pneumoniae mefA: 16 µg/mL (≈ 18.4 µM)
S. pneumoniae; Strain No. MP-627 UNT-039
  MIC S. pneumoniae mefA: 16 µg/mL (≈ 18.4 µM)
S. pyogenes; ATCC19615, Strain No. MP-19
  MIC S. pyogenes ATCC19615: 8 µg/mL (≈ 9.19 µM)
S. pyogenes; mac resistant, Strain No. MP-625 UNT-014
  MIC S. pyogenes mac resistant: 64 µg/mL (≈ 73.6 µM)
E. coli; ATCC25922, Strain No. MP-4
  MIC E. coli ATCC25922: >64 µg/mL
E. coli; ATCC25922:tolC, Strain No. MP-9
  MIC E. coli ATCC25922:tolC: >64 µg/mL
E. coli; clinical, Strain No. MP541
  MIC E. coli clinical: >64 µg/mL
E. coli; clinical-cErm, Strain No. MP532
  MIC E. coli clinical-cErm: >64 µg/mL
S. aureus; ATCC29213, Strain No. MP-12
  MIC S. aureus ATCC29213: >64 µg/mL
S. aureus; ATCCBAA-977, Strain No. MP-17
  MIC S. aureus ATCCBAA-977: >64 µg/mL
S. aureus; GISA USA600, Strain No. MP-619 UNT-120
  MIC S. aureus (MRSA) GISA USA600: >64 µg/mL
S. aureus; ST-228 cErm, Strain No. MP-513
  MIC S. aureus (MRSA) ST-228 cErm: >64 µg/mL
S. aureus; USA100, Strain No. MP-618 UNT-096
  MIC S. aureus (MRSA) USA100: >64 µg/mL
S. aureus; USA300, Strain No. MP-549
  MIC S. aureus (MRSA) USA300: >64 µg/mL
S. aureus; ermA phenotype, Strain No. MP-620 UNT-146
  MIC S. aureus (MRSA) ermA phenotype: >64 µg/mL
E. faecalis; ATCC29212, Strain No. MP-24
  MIC E. faecalis ATCC29212: 64 µg/mL (≈ 73.6 µM)
E. faecalis; van resistant, Strain No. UNT-039
  MIC E. faecalis van resistant: >64 µg/mL
K. pneumoniae; ATCC10031, Strain No. MP-14
  MIC K. pneumoniae ATCC10031: >64 µg/mL
K. pneumoniae; Strain No. MP546
  MIC K. pneumoniae clinical: >64 µg/mL
K. pneumoniae; Strain No. MP548
  MIC K. pneumoniae clinical: >64 µg/mL
P. aeruginosa; ATCC27853, Strain No. MP-3
  MIC P. aeruginosa ATCC27853: >64 µg/mL
P. aeruginosa; PAO1, Strain No. MP-7
  MIC P. aeruginosa PAO1: >64 µg/mL
P. aeruginosa; PAO1:mex, Strain No. MP-8
  MIC P. aeruginosa PAO1:mex: >64 µg/mL

## CCC1OC(=O)C(C)C(=O)C(C)C(OC2OC(C)CC(N(C)Cc3cccnc3)C2O)C(C)(OC)CC(C)CNC(C)C2N(CCCCn3cc(-c4cccc(N)c4)nn3)C(=O)OC12C (stereo not drawn) [FSM-120385]
A. baumannii; [1]
  MIC: 16 µg/mL (≈ 17.7 µM)
A. baumannii; [2]
  MIC: >64 µg/mL
A. baumannii; [3]
  MIC: 64 µg/mL (≈ 70.7 µM)
S. pneumoniae; [4]
  MIC: 0.06 µg/mL (≈ 0.0663 µM)
S. pneumoniae; [5]
  MIC: 0.125 µg/mL (≈ 0.138 µM)
S. pneumoniae; [6]
  MIC: 0.25 µg/mL (≈ 0.276 µM)
S. pyogenes; [7]
  MIC: <0.03 µg/mL
S. pyogenes; [8]
  MIC: 1 µg/mL (≈ 1.1 µM)
E. coli; [9]
  MIC: 64 µg/mL (≈ 70.7 µM)
E. coli; [10]
  MIC: 4 µg/mL (≈ 4.42 µM)
E. coli; [11]
  MIC: 64 µg/mL (≈ 70.7 µM)
E. coli; [12]
  MIC: >64 µg/mL
S. aureus; [13]
  MIC: >64 µg/mL
S. aureus; [14]
  MIC: >64 µg/mL
S. aureus; [15]
  MIC: >64 µg/mL
S. aureus; [16]
  MIC: 16 µg/mL (≈ 17.7 µM)
S. aureus; [17]
  MIC: >64 µg/mL
S. aureus; [18]
  MIC: 4 µg/mL (≈ 4.42 µM)
S. aureus; [19]
  MIC: 4 µg/mL (≈ 4.42 µM)
E. faecalis; [20]
  MIC: 1 µg/mL (≈ 1.1 µM)
E. faecalis; [21]
  MIC: >64 µg/mL
K. pneumoniae; [22]
  MIC: 8 µg/mL (≈ 8.84 µM)
K. pneumoniae; [23]
  MIC: >64 µg/mL
K. pneumoniae; [24]
  MIC: >64 µg/mL
P. aeruginosa; [25]
  MIC: >64 µg/mL
P. aeruginosa; [26]
  MIC: >64 µg/mL
P. aeruginosa; [27]
  MIC: 32 µg/mL (≈ 35.4 µM)

## CCC1OC(=O)C(C)C(=O)C(C)C(OC2OC(C)CC(N3CCOC3CO)C2O)C(C)(OC)CC(C)CNC(C)C2N(CCCCn3cc(-c4cccc(N)c4)nn3)C(=O)OC12C (stereo not drawn) [FSM-120380]
A. baumannii; [1]
  MIC: >64 µg/mL
A. baumannii; [2]
  MIC: >64 µg/mL
A. baumannii; [3]
  MIC: >64 µg/mL
S. pneumoniae; [4]
  MIC: 8 µg/mL (≈ 9.03 µM)
S. pneumoniae; [5]
  MIC: 4 µg/mL (≈ 4.51 µM)
S. pneumoniae; [6]
  MIC: 4 µg/mL (≈ 4.51 µM)
S. pyogenes; [7]
  MIC: 8 µg/mL (≈ 9.03 µM)
S. pyogenes; [8]
  MIC: 32 µg/mL (≈ 36.1 µM)
E. coli; [9]
  MIC: >64 µg/mL
E. coli; [10]
  MIC: 32 µg/mL (≈ 36.1 µM)
E. coli; [11]
  MIC: >64 µg/mL
E. coli; [12]
  MIC: >64 µg/mL
S. aureus; [13]
  MIC: >64 µg/mL
S. aureus; [14]
  MIC: >64 µg/mL
S. aureus; [15]
  MIC: >64 µg/mL
S. aureus; [16]
  MIC: >64 µg/mL
S. aureus; [17]
  MIC: >64 µg/mL
S. aureus; [18]
  MIC: >64 µg/mL
S. aureus; [19]
  MIC: >64 µg/mL
E. faecalis; [20]
  MIC: 64 µg/mL (≈ 72.2 µM)
E. faecalis; [21]
  MIC: >64 µg/mL
K. pneumoniae; [22]
  MIC: >64 µg/mL
K. pneumoniae; [23]
  MIC: >64 µg/mL
K. pneumoniae; [24]
  MIC: >64 µg/mL
P. aeruginosa; [25]
  MIC: >64 µg/mL
P. aeruginosa; [26]
  MIC: >64 µg/mL
P. aeruginosa; [27]
  MIC: >64 µg/mL
